# Experimental data taken from patent US10603289B2, “Process for the manufacture of ajoene derivatives” (DANMARKS TEKNISKE UNIVERSITET, priority 2010, dated 2020).
# Legend:
# [1] = test system: biofilms of P. aeruginosa PAO1; test: In vitro flow cell biofilm killing, live dead stains and CSLM; type: cell-based; details: tobramycin or ajoene only
# Protocol: Dead cells are stained with the DNA stain PI (Dark grey/black). The biofilm were visualized with CSLM. C) Implant model treated with ajoene and tobramycin.
# 3873-3880]. It was however unknown what was the active ingredient in the garlic extract. Thus. biofilms of P. aeruginosa strain were either grown in the presence or absence of 100 μg/ml ajoene. At day three the biofilms were treated with 10 μg/ml tobramycin for 24 hours. […] 10 μg/ml tobramycin was therefore chosen for the present study.
# [2] = Biological activity after further purification, assays as described in the examples; details: after column chromatography further purified, e.g. reverse phase HPLC; or isolated pure isomers
# Source text: The purity of (E,Z)-ajoene after the above procedure may be 95-99.5%, such as 97-99.5%, 98-99.5%, 99-99.5% such as about 99.5%. […] This was also found when isolating pure (E)-ajoene and/or pure (Z)-ajoene, e.g. using HPLC. It is speculated that small amounts of ajoene derived chemistry, i.e. compounds related to ajoene, such as less than 5%, 3%, 2%, 1%, such as less than 0.5% may be highly important in the stabilisation of (E,Z)-ajoene and derivatives, towards degradation, e.g. oxidation, reduction and or cleavage, both in vitro but importantly also in vivo.
# P. aeruginosa genes = test: DNA microarray, number of genes regulated by ajoene treatment; type: cell-based
# Protocol: DNA microarray analysis was used to identify genes regulated by ajoene treatment. As a reference we have used the QS regulon previously identified by Hentzer et al., [M. Hentzer et al., EMBO J., 2003, 22, p. […] Exponential growing P. aeruginosa cultures were treated with the following four concentrations of ajoene; 10 μg/ml (42.7 μM), 20 μg/ml (85.4 μM), 40 μg/ml (170.8 μM) and 80 μg/ml (341.6 μM). (E,Z) ajoene having an E:Z ratio of 1:4 was used. […] The samples were retrieved at an OD600 nm of 2.0 (optical density) because previous investigations have shown the highest activity among the QS genes at that cell density. Gene expression of the treated cultures was compared to an untreated control.
# In general, there was only a small number of genes that were down regulated more than 5 fold by the four different concentrations of ajoene; 0 genes at 10 μg/ml ajoene, 0 genes at 20 μg/ml ajoene, 2 genes at 40 μg/ml ajoene and 11 genes at 80 μg/ml ajoene. […] According to our experimental settings, expression of 10 out of the total number of 163 QS controlled P. aeruginosa genes (according to Hentzer et al., [M. Hentzer et al., EMBO J., 2003, 22, p. 3803-3815]) was down regulated by the ajoene treatments. A concentration of 80 μg/ml ajoene affects expression of 11 out of a total of 5570 P. aeruginosa genes. Ajoene is therefore highly specific for a subclass of QS controlled genes (Table 3).
# wild-type P. aeruginosa = test: Foreign-body (silicone tube implant) infection model; type: in vivo, mice
# Protocol: To examine the effect of a combination treatment with ajoene and tobramycin in vivo we used an foreign-body infection model [L. D. Christensen et al., Microbiology, 2007, 153, p. 2312-2320]. Silicone tube implants with a size of 4 mm (inner diameter 4 mm/outer diameter 6 mm) pre-colonized with wild-type P. aeruginosa, were inserted into the peritoneal cavity of mice. Treatments were injected subcutaneously every 24 hours, where ajoene and tobramycin treatment were initiated two days pre-insertion and 24 hours post-insertion, respectively. 72 hours after insertion the implants were removed from the mice and the number of colony-forming units per implant was determined. […] (E,Z) ajoene having an E:Z ratio of 1:4 was used.
# [3] = test system: rhamnolipid production of planktonic grown P. aeruginosa; test: Rhamnolipid concentration in cultures quantified by LC-MS; type: cell-based; details: for rhamnolipid content: OD=1.5 (FIG. 4)
# Source text: Samples retrieved at OD600=1.5 (dark grey bars), and at OD600=2.0 (light grey bars). Data represent the average of tree individual experiments. Error bars are mean±SD.
# To exemplify the actual efficacy of ajoene in inhibiting synthesis of one of the major virulence factors, the concentration of rhamnolipid present in the cultures grown for DNA array and RT-PCR where directly quantified by LC-MS. The production of rhamnolipids is initiated early in stationary phase co-ordinately regulated by the Rhl QS system encoded by the rhlA, rhlB and rhlC genes (PA3479, PA3478 and PA1131) [V. E. Wagner et al., J Bacteriol., 2003, 185, p. 2080-2095 and R. Rahim et al., Mol Microbiol., 2001, 40, p. 708-718]. Samples where therefore retrieved at an OD600 nm of 1.5 and 2.0 to monitor rhamnolipid production before and after the synthesis was fully initiated. […] This concentration therefore almost completely blocks rhamnolipid synthesis. (E,Z) ajoene having an E:Z ratio of 1:4 was used.
# lasB = test: RT-PCR verification of the microarray data; type: cell-based, P. aeruginosa; details: 80 μg/ml ajoene; E:Z 1:4
# Protocol: (§1) To verify the microarray data, RT-PCR was performed with two of the key QS genes; lasB and rhlA (see FIG. 3). When comparing the two methods the repression of both the lasB and rhlA gene expression follow the same trend, with a general slightly increase in fold reduction observed with the RT-PCR based method. […] The expression of rhlA is primarily controlled by the Rhl QS system and the signal molecule BHL whereas the expression of lasB is affected by both the Las and the Rhl QS systems and the concentration of the signal molecules OdDHL and BHL. According to Rasmussen et al., [Rasmussen et al., Microbiology, 2005, 151, p. 1325-1340], the genes listed in table 3 are (except prpL which regulation is entirely governed by the Las QS system) subject to regulation by both the Las and Rhl QS systems. […] (E,Z) ajoene having an E:Z ratio of 1:4 was used in these experiments.
# rhlA = test: RT-PCR verification of the microarray data; type: cell-based, P. aeruginosa; details: 80 μg/ml ajoene; E:Z 1:4
# Protocol: as §1
# Gram negative bacteria = details: E:Z=1:4 isomer used; cited from earlier work
structure (smiles),measurement,setting,value
"C=CCSSC=CC[S+]([O-])CC=C (stereo not shown) [ajoene, (E,Z)-4,5,9-trithiadodeca-1,6,11-triene-9-oxide]","killing of the biofilm bacteria, single agent",[1],no or only minor killing
same,biological activity after further purification,[2],lost all or parts of its biological activity
same,number of genes down regulated more than 5 fold,P. aeruginosa genes; 10 μg/ml ajoene,0 genes
same,number of genes down regulated more than 5 fold,P. aeruginosa genes; 20 μg/ml ajoene,0 genes
same,number of genes down regulated more than 5 fold,P. aeruginosa genes; 40 μg/ml ajoene,2 genes
same,number of genes down regulated more than 5 fold,"P. aeruginosa genes; 80 μg/ml ajoene, out of a total of 5570 P. aeruginosa genes",11 genes
same,number of QS controlled P. aeruginosa genes down regulated by the ajoene treatments,P. aeruginosa genes; out of the total number of 163 QS controlled genes (Hentzer et al.),10 genes
same,"clearing of implants, single treatment versus placebo group",wild-type P. aeruginosa; CFU per implant 72 hours after insertion,significant difference in clearing
same,"clearing of implants, between the two single treatment groups",wild-type P. aeruginosa; ajoene versus tobramycin,no significant difference in clearing
same,rhamnolipid content compared to the untreated culture,"[3]; 20 μg/ml ajoene, OD600 nm of 2.0",approximately ⅓
same,rhamnolipid content,[3]; 40 μg/ml ajoene,below the detection level
same,rhamnolipid present in the sample,[3]; 80 μg/ml ajoene,almost no detectable rhamnolipid
same,rhamnolipid content,[3]; 80 μg/ml ajoene,below the detection level
same,lowering of expression of lasB (RT-PCR),lasB,~5 fold
same,lowering of expression of rhlA (RT-PCR),rhlA,~12 fold
same,inhibitory effect on Gram negative bacteria,Gram negative bacteria,varied inhibitory effect
